Measured values taken from patent US8481028B2, “Compositions for preparing a coffee beverage comprising hydrolysed chlorogenic acid” (Nestec S.A., priority 2008, dated 2013).

Key:
[1] = test system: Lactobacillus johnsonii (CNCM I-1225) fresh cells; assay: Treatment of NESCAFE PROTECT with L. johnsonii fresh cells, HPLC of chlorogenic and phenolic acids
Experimental: (§1) Cells of L. johnsonii (CNCM I-1225) were grown (7.0 E08 cfu/ml) and centrifuged (5000 g, 10 min), the pellets were resuspended in phosphate buffer (50 mM, pH 7.0) at a concentration of 0.61 g/ml. […] Samples were withdrawn at different reaction times, centrifuged (3000 g, 5 min) and filtered through 0.45 μm pore size syringe filters (Millipore SLHA 025 BS) and analysed by HPLC.
A reaction control was run in parallel under the same reaction conditions but without bacteria.
(§2) Coffee samples were diluted to 1% w/w and analyzed by RP-HPLC on a CC 250/4 Nucleosil 100-5-C18 column (Macherey-Nagel). The eluent system was Millipore water, 0.1% TFA and CH3CN at a flow rate of 1 mL/min. The method allowed the simultaneous determination of caffeoyl quinic acids (CQA), feruloyl quinic acids (FQA), di-caffeoyl quinic acids (diCQA), feruloyl quinic acid-lactones, caffeic acid (CA) and ferulic acid (FA) (absorbance at 325 nm) using external standard calibration curves. Results were expressed relative to the reference at time 0 (t0) or to the reference at the same time without bacteria.

[2] = test system: Lactobacillus johnsonii (CNCM I-1225) extract (lysed cells); assay: Treatment of NESCAFE PROTECT with L. johnsonii extract (lysed cells), HPLC; type: biochemical
Experimental: as §1, with “g/ml. The cells were then lysed using the glass-beads method. 600 μl of cells preparation were put in screw-cap tubes and 600 μl of glass-beads were added at 0° C. The tubes were then put into a Mini-Beadbeater for 1 min of intense shaking, cooled in ice, and put another 1 min in the Mini-Beadbeater.” for “g/ml.”, “min),” for “min) and”
as §2

[3] = test system: spray-dried preparation of Lactobacillus johnsonii (CNCM I-1225); assay: Treatment of NESCAFE PROTECT with spray-dried preparation of L. johnsonii, HPLC
Experimental: To this solution, 10 mg of a spray-dried preparation of Lactobacillus johnsonii (CNCM I-1225) (3.3 E9 cfu/g) were added. The mixture was then incubated at 37° C. and samples were withdrawn at different reaction times. After centrifugation (3000 g, 5 min) and filtration (0.45 μm pore size syringe filters, Millipore SLHA 025 BS) the samples were analysed by HPLC.
as §2

[4] = test system: spray-dried preparation of Lactobacillus johnsonii (CNCM I-1225); assay: Treatment of green coffee extract with spray-dried preparation of L. johnsonii, HPLC
Experimental: 30 mg of a dried green coffee extract was dissolved in 1 ml phosphate buffer (50 mM, pH 7.0) or in 1 ml water. To this solution, 10 mg of a spray-dried preparation of Lactobacillus johnsonii (3.3 E9 cfu/g) was added. The mixture was then incubated at 37° C. and samples were withdrawn at different reaction times. After centrifugation (3000 g, 5 min) and filtration (0.45 μm pore size syringe filters, Millipore SLHA 025 BS) the samples were analysed by HPLC.
as §2

[5] = test system: concentrated preparation of Lactobacillus johnsonii (CNCM I-1225); assay: Treatment of NESCAFE with concentrated preparation of L. johnsonii, HPLC
Experimental: 400 mg of NESCAFE SPECIAL FILTRE® (a dried extract of roasted coffee beans) were dissolved in 1 ml of boiling water and the solution was cooled to 37° C. at room temperature. To 250 μl of this coffee solution, different amounts of concentrated preparation of Lactobacillus johnsonii (50 μl, 100 μl, 350 μl, 750 μl) were added and the volume was adjusted to 1 ml with water. The mixtures were than incubated at 37° C. for 2 h and 4 h. After centrifugation (3000 g, 5 min) and filtration the samples were analysed by HPLC.
as §2

[6] = test system: Lactobacillus johnsonii (CNCM I-1225); assay: Treatment of coffee extracts with bacteria cells (L. johnsonii), HPLC
Experimental: as §2
(§3) Tested strains were harvested (centrifugation at 5000 g for 10 min) after having well reached stationary phase, corresponding to 16 hours of incubation in culture medium at 37° C. in anaerobic atmosphere without agitation. For a first activation of the strains, frozen stock cultures were inoculated in fresh media and grown overnight. This pre-culture was used to inoculate the culture.
(§4) After culture of bacteria and centrifugation, the pellets were resuspended in phosphate buffer (pH 7.0) at a concentration of 0.61 g/ml. To 200 μl of this cells preparation, 800 μl of a coffee solution (3%) was added and the mixture was incubated at 37° C. for 4 h, 16 h and 24 h.

[7] = test system: Bifidobacterium lactis BB12 (CNCM I-3446); assay: Treatment of coffee extracts with bacteria cells (B. lactis), HPLC
Experimental: as §2, §3, §4

Chlorogenate esterase = assay: Incubation of coffee extracts with chlorogenate esterase, HPLC; type: biochemical, Aspergillus japonicus
Experimental: as §2
Chlorogenate esterase (24 U/g), derived from Aspergillus japonicus (Kikkoman, Japan). Tannase from Aspergillus oryzae (Kikkoman, Japan) Preparation of Bacteria Cells
A solution of chlorogenate esterase (25 mg) in 200 μl phosphate buffer (pH 7.0) was added to 800 μl of a coffee solution (3%). The mixture was then incubated at 37° C. for 4 h, 16 h and 24 h. After reaction time, the enzymatic activity was stopped by heat treatment (3 min, 90° C.) and the mixture was filtered before analysis.

[8] = NESCAFE PROTECT + Lactobacillus johnsonii, 4 h
[9] = NESCAFE PROTECT + Lactobacillus johnsonii, 16 h
[10] = NESCAFE PROTECT + Lactobacillus johnsonii, 24 h
[11] = green coffee extract + Lactobacillus johnsonii, 4 h
[12] = green coffee extract + Lactobacillus johnsonii, 16 h
[13] = green coffee extract + Lactobacillus johnsonii, 24 h
[14] = NESCAFE PROTECT + Bifidobacterium lactis, 4 h
[15] = NESCAFE PROTECT + Bifidobacterium lactis, 16 h
[16] = NESCAFE PROTECT + Bifidobacterium lactis, 24 h
[17] = green coffee extract + Bifidobacterium lactis, 4 h
[18] = green coffee extract + Bifidobacterium lactis, 16 h
[19] = green coffee extract + Bifidobacterium lactis, 24 h
[20] = NESCAFE PROTECT + Chlorogenate esterase, 4 h
[21] = NESCAFE PROTECT + Chlorogenate esterase, 16 h
[22] = NESCAFE PROTECT + Chlorogenate esterase, 24 h
[23] = green coffee extract + Chlorogenate esterase, 4 h
[24] = green coffee extract + Chlorogenate esterase, 16 h
[25] = green coffee extract + Chlorogenate esterase, 24 h

O=C(O)/C=C/c1ccc(O)c(O)c1 [CA, caffeic acid]
Concentration in % relative to untreated reference at t = 0 ([1]; 6 h, cell preparation 100 uL): 10111% | Concentration in % relative to untreated reference at t = 0 ([1]; 6 h, cell preparation 350 uL): 14282% | Concentration in % relative to untreated reference at t = 0 ([1]; 6 h, cell preparation 750 uL): 13215% | Concentration in % relative to untreated reference at t = 0 ([1]; 24 h, cell preparation 100 uL): 13661% | Concentration in % relative to untreated reference at t = 0 ([1]; 24 h, cell preparation 350 uL): 15981% | Concentration in % relative to untreated reference at t = 0 ([1]; 24 h, cell preparation 750 uL): 13238% | Concentration in % relative to untreated reference at t = 0 ([2]; 2 h, cell preparation 100.0 uL): 10729% | Concentration in % relative to untreated reference at t = 0 ([2]; 2 h, cell preparation 350.0 uL): 13901% | Concentration in % relative to untreated reference at t = 0 ([2]; 6 h, cell preparation 100.0 uL): 12581% | Concentration in % relative to untreated reference at t = 0 ([2]; 6 h, cell preparation 350.0 uL): 16300% | % relative to untreated control at t = 0 ([3]; 2 h): 3598% | % relative to untreated control at t = 0 ([3]; 6 h): 6140% | % relative to untreated control at t = 0 ([3]; 24 h): 7879% | % relative to untreated control at t = 0 ([4]; 4 h): 2673% | % relative to untreated control at t = 0 ([4]; 6 h): 3762% | % relative to untreated control at t = 0 ([4]; 16 h): 5182% | % relative to untreated control at t = 0 ([4]; 24 h): 6145% | % relative to untreated control at t = 0 ([5]; cell amount 50 μL/1 mL, 2 h): 1737% | % relative to untreated control at t = 0 ([5]; cell amount 50 μL/1 mL, 4 h): 1763% | % relative to untreated control at t = 0 ([5]; cell amount 100 μL/1 mL, 2 h): 2885% | % relative to untreated control at t = 0 ([5]; cell amount 100 μL/1 mL, 4 h): 2803% | % relative to untreated control at t = 0 ([5]; cell amount 350 μL/1 mL, 2 h): 5752% | % relative to untreated control at t = 0 ([5]; cell amount 350 μL/1 mL, 4 h): 4491% | % relative to untreated control at t = 0 ([5]; cell amount 750 μL/1 mL, 2 h): 7292% | % relative to untreated control at t = 0 ([5]; cell amount 750 μL/1 mL, 4 h): 5514% | % relative to untreated control at t = 0 [6, 8]: 7942% | % relative to untreated control at t = 0 [6, 9]: 9429% | % relative to untreated control at t = 0 [6, 10]: 9933% | % relative to untreated control at t = 0 [6, 11]: 12505% | % relative to untreated control at t = 0 [6, 12]: 17148% | % relative to untreated control at t = 0 [6, 13]: 18107% | % relative to untreated control at t = 0 [7, 14]: 968% | % relative to untreated control at t = 0 [7, 15]: 2258% | % relative to untreated control at t = 0 [7, 16]: 2840% | % relative to untreated control at t = 0 [7, 17]: 1521% | % relative to untreated control at t = 0 [7, 18]: 4182% | % relative to untreated control at t = 0 [7, 19]: 5283% | % relative to untreated control at t = 0 (Chlorogenate esterase; [20]): 10879% | % relative to untreated control at t = 0 (Chlorogenate esterase; [21]): 10198% | % relative to untreated control at t = 0 (Chlorogenate esterase; [22]): 10750% | % relative to untreated control at t = 0 (Chlorogenate esterase; [23]): 18917% | % relative to untreated control at t = 0 (Chlorogenate esterase; [24]): 17275% | % relative to untreated control at t = 0 (Chlorogenate esterase; [25]): 18318%

di-caffeoyl quinic acids [diCQA]
Concentration in % relative to untreated reference at t = 0 ([1]; 6 h, cell preparation 100 uL): 23% | Concentration in % relative to untreated reference at t = 0 ([1]; 6 h, cell preparation 350 uL): 0% | Concentration in % relative to untreated reference at t = 0 ([1]; 6 h, cell preparation 750 uL): 0% | Concentration in % relative to untreated reference at t = 0 ([1]; 24 h, cell preparation 100 uL): 2% | Concentration in % relative to untreated reference at t = 0 ([1]; 24 h, cell preparation 350 uL): 0% | Concentration in % relative to untreated reference at t = 0 ([1]; 24 h, cell preparation 750 uL): 0% | Concentration in % relative to untreated reference at t = 0 ([2]; 2 h, cell preparation 100.0 uL): 8% | Concentration in % relative to untreated reference at t = 0 ([2]; 2 h, cell preparation 350.0 uL): 1% | Concentration in % relative to untreated reference at t = 0 ([2]; 6 h, cell preparation 100.0 uL): 1% | Concentration in % relative to untreated reference at t = 0 ([2]; 6 h, cell preparation 350.0 uL): 1% | % relative to untreated control at t = 0 ([4]; 4 h): 67% | % relative to untreated control at t = 0 ([4]; 6 h): 53% | % relative to untreated control at t = 0 ([4]; 16 h): 32% | % relative to untreated control at t = 0 ([4]; 24 h): 20% | % relative to untreated control at t = 0 ([5]; cell amount 50 μL/1 mL, 2 h): 86% | % relative to untreated control at t = 0 ([5]; cell amount 50 μL/1 mL, 4 h): 75% | % relative to untreated control at t = 0 ([5]; cell amount 100 μL/1 mL, 2 h): 68% | % relative to untreated control at t = 0 ([5]; cell amount 100 μL/1 mL, 4 h): 56% | % relative to untreated control at t = 0 ([5]; cell amount 350 μL/1 mL, 2 h): 23% | % relative to untreated control at t = 0 ([5]; cell amount 350 μL/1 mL, 4 h): 15% | % relative to untreated control at t = 0 ([5]; cell amount 750 μL/1 mL, 2 h): 6% | % relative to untreated control at t = 0 ([5]; cell amount 750 μL/1 mL, 4 h): 6% | % relative to untreated control at t = 0 [6, 8]: 18% | % relative to untreated control at t = 0 [6, 9]: 2% | % relative to untreated control at t = 0 [6, 10]: 2% | % relative to untreated control at t = 0 [6, 11]: 35% | % relative to untreated control at t = 0 [6, 12]: 6% | % relative to untreated control at t = 0 [6, 13]: 3% | % relative to untreated control at t = 0 [7, 14]: 91% | % relative to untreated control at t = 0 [7, 15]: 72% | % relative to untreated control at t = 0 [7, 16]: 67% | % relative to untreated control at t = 0 [7, 17]: 85% | % relative to untreated control at t = 0 [7, 18]: 70% | % relative to untreated control at t = 0 [7, 19]: 64% | % relative to untreated control at t = 0 (Chlorogenate esterase; [20]): 0% | % relative to untreated control at t = 0 (Chlorogenate esterase; [21]): 0% | % relative to untreated control at t = 0 (Chlorogenate esterase; [22]): 1% | % relative to untreated control at t = 0 (Chlorogenate esterase; [23]): 0% | % relative to untreated control at t = 0 (Chlorogenate esterase; [24]): 0% | % relative to untreated control at t = 0 (Chlorogenate esterase; [25]): 0%
